Assay results from PubChem BioAssay (NCI).
“And” between values parts separate entries of the source, which are not always exact repeats. Equal entries are not always repeated.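 The compound was tested at five concentrations on cells cultured in 96-well plates, with a 48-hour exposure period. GI50: concentration for 50% inhibition of growth. TGI denotes the concentration required for complete inhibition of growth.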

Each compound was assayed on SK-MEL-5 melanoma (assay: NCI anticancer screen, dose series, 48 h).
Compound `CC1(C)OC(=O)C(=C2CCC(C(=O)Nc3cccc(C(F)(F)F)c3)N2)C(=O)O1` (configuration not stated) has a TGI of over 100 µM.
Work on `CN(C)CCN1CCc2c([nH]c3ccccc23)C1c1cccnc1` (configuration not stated) yielded a TGI of over 100 µM.
`CCN(c1ccccc1)[C@H]1C(=O)N(c2ccc([N+](=O)[O-])cc2)[C@H]1c1ccc(OC)cc1` was tested, and the TGI was over 100 µM.
For `COc1ccc(/C=C\c2cc(OC)c(OC)c(OC)c2)cc1`, the TGI was 14.5 µM.
In the case of `COc1cc(N(C)C)c(OC)cc1C=C1C=CC=C1`, the TGI is reported as over 100 µM.
`C[C@H]1CC[P+](C)(c2ccccc2)C1` (some centres not stated) gave a TGI of over 100 µM.
`C=C1CC[C@H]2C(C)=CC[C@H]3C(=C)C(=O)O[C@@H]3[C@@H]12` gave a TGI of over 100 µM.
`COc1cc(OC)c2c(=O)c3cccc([N+](=O)[O-])c3n(C)c2c1` gave a TGI of over 100 µM.
`COc1cccc(/C=N\NC(=O)C(C)SC(C)C(=O)N/N=C/c2cccc(OC)c2)c1` (configuration not stated) showed a TGI of over 100 µM.
With `O=[N+]([O-])/C=C/c1ccc(Cl)cc1[N+](=O)[O-]` the GI50 was 8.47 µM and the TGI was 21.5 µM.
For `Cc1cc(C)nc(NS(=O)(=O)c2ccc(Nc3c4ccccc4nc4c(C(=O)NCCN(C)C)cccc34)cc2)n1`, the TGI was 18.8 µM.
For `COc1cc2c3c(n(CCCNCCCNCCCN)c(=O)c2cc1OC)-c1cc2c(cc1C3=O)OCO2`, the GI50 was over 100 µM and the TGI was over 100 µM.
For `COc1cc2c(c(OC)c1OC)C(=O)NCCC2`, the TGI was over 100 µM.
For `O=C1CCC(=O)N1Sc1ccccc1`, the TGI was over 100 µM.
`O=C(/C=C/c1ccccc1O)c1ccccc1Cl` gave a TGI of over 100 µM.
Work on `CCCCC1(C(NC(=O)c2ccccc2Cl)c2ccncc2)C(=O)N(c2ccccc2)N(c2ccccc2)C1=O` (configuration not stated) yielded a TGI of 60 µM.
In the case of `COc1ccc(/C=N/NS(=O)(=O)c2ccccc2)cc1`, the TGI is reported as over 100 µM.
`O=CN1N=C(c2cccc(Nc3ccnc4cc(Cl)ccc34)c2)CC1c1ccc(Cl)cc1` (configuration not stated) was tested, and the GI50 was 1.86 µM and the TGI was 10.6 µM.
For `O=C1C(=O)C2(CC1S(=O)(=O)c1ccccc1)c1ccccc1-c1ccccc12` (configuration not stated), the TGI was 28.2 µM.
`O=c1oc2c3ccc4ccccc4c3n(CCN3CCCCC3)c2c2ccccc12` gave a TGI of over 100 µM.
Compound `Cc1ccc(S(=O)C(C)C(Cl)c2ccccc2)cc1` (configuration not stated) has a TGI of over 100 µM.
Work on `CN1CCc2ccccc2C(C(=O)c2ccc3c(c2)OCO3)C1=O` (configuration not stated) yielded a TGI of over 100 µM.
`Cc1cc(Cl)ccc1NC(=O)C1C(=O)N(c2ccc(Cl)cc2C)C(=O)/C1=N\NC(N)=S` (configuration not stated) gave a TGI of over 100 µM.
In the case of `COc1ccc(Br)c(C(=O)N2CCc3ccccc32)c1N`, the TGI is reported as over 100 µM.
With `Cc1ccc2ccc(-c3ccccc3)c3c2c1C(=O)c1ccccc1C3=O` the TGI was over 100 µM.
Work on `COc1ccc(C2Cc3cc(OC)c(OC)c(OC)c3C2)cc1` (configuration not stated) yielded a TGI of 31.3 µM.
Work on `C=C1C[C@@H]2O[C@H]3[C@H]4[C@@H](CC[C@@](C)(OC(=O)CCC)[C@H]42)[C@@H](C)C(=O)O[C@@]3(C)CC[C@H]1OO` yielded a GI50 of 17.8 µM and a TGI of 32.8 µM.

The compounds below were run on ACHN renal (assay: NCI anticancer screen, dose series, 48 h).
For `CC1(C)OC(=O)C(=C2CCC(C(=O)Nc3cccc(C(F)(F)F)c3)N2)C(=O)O1` (configuration not stated), the TGI was over 100 µM.
`CN(C)CCN1CCc2c([nH]c3ccccc23)C1c1cccnc1` (configuration not stated) showed a TGI of 50.9 µM.
In the case of `CN(C)c1ccc(C(O)C2=CC(=O)c3ccccc3C2=O)cc1` (configuration not stated), the GI50 is reported as 3.69 µM and the TGI is reported as 31.8 µM.
Compound `CCN(c1ccccc1)[C@H]1C(=O)N(c2ccc([N+](=O)[O-])cc2)[C@H]1c1ccc(OC)cc1` has a TGI of over 100 µM.
For `COc1ccc(/C=C\c2cc(OC)c(OC)c(OC)c2)cc1`, the TGI was over 100 µM.
`COc1cc(N(C)C)c(OC)cc1C=C1C=CC=C1` showed a TGI of over 100 µM.
Work on `C[C@H]1CC[P+](C)(c2ccccc2)C1` (some centres not stated) yielded a TGI of over 100 µM.
Compound `C=C1CC[C@H]2C(C)=CC[C@H]3C(=C)C(=O)O[C@@H]3[C@@H]12` has a TGI of over 100 µM.
`COc1cccc(/C=N\NC(=O)C(C)SC(C)C(=O)N/N=C/c2cccc(OC)c2)c1` (configuration not stated) showed a TGI of 35.6 µM.
In the case of `O=[N+]([O-])/C=C/c1ccc(Cl)cc1[N+](=O)[O-]`, the GI50 is reported as 1.95 µM and the TGI is reported as 3.79 µM.
With `O=C(O)c1ccccc1NCn1c(=S)sc2ccccc21` the TGI was over 100 µM.
With `CCCCCCCCCCCCCCCC[n+]1ccccc1` the GI50 was 0.733 µM and 0.909 µM and the TGI was 2.16 µM and 4.49 µM.
With `Cc1cc(C)nc(NS(=O)(=O)c2ccc(Nc3c4ccccc4nc4c(C(=O)NCCN(C)C)cccc34)cc2)n1` the TGI was 15.9 µM.
In the case of `COc1cc2c3c(n(CCCNCCCNCCCN)c(=O)c2cc1OC)-c1cc2c(cc1C3=O)OCO2`, the GI50 is reported as 91.6 µM and the TGI is reported as over 100 µM.
For `COc1cc2c(c(OC)c1OC)C(=O)NCCC2`, the TGI was over 100 µM.
For `O=C1CCC(=O)N1Sc1ccccc1`, the TGI was over 100 µM.
`O=C(/C=C/c1ccccc1O)c1ccccc1Cl` gave a TGI of over 100 µM.
Compound `CCCCC1(C(NC(=O)c2ccccc2Cl)c2ccncc2)C(=O)N(c2ccccc2)N(c2ccccc2)C1=O` (configuration not stated) has a TGI of over 100 µM.
`COc1ccc(/C=N/NS(=O)(=O)c2ccccc2)cc1` showed a TGI of over 100 µM.
In the case of `C1=CC2CCC1CN2CCC1CNc2ccccc21` (configuration not stated), the TGI is reported as over 100 µM.
`O=CN1N=C(c2cccc(Nc3ccnc4cc(Cl)ccc34)c2)CC1c1ccc(Cl)cc1` (configuration not stated) gave a GI50 of 5.17 µM and a TGI of over 100 µM.
In the case of `O=C1C(=O)C2(CC1S(=O)(=O)c1ccccc1)c1ccccc1-c1ccccc12` (configuration not stated), the TGI is reported as 92 µM.
`O=c1oc2c3ccc4ccccc4c3n(CCN3CCCCC3)c2c2ccccc12` gave a TGI of over 100 µM.
`Cc1ccc(S(=O)C(C)C(Cl)c2ccccc2)cc1` (configuration not stated) gave a TGI of over 100 µM.
With `CN1CCc2ccccc2C(C(=O)c2ccc3c(c2)OCO3)C1=O` (configuration not stated) the TGI was over 100 µM.
`Cc1cc(Cl)ccc1NC(=O)C1C(=O)N(c2ccc(Cl)cc2C)C(=O)/C1=N\NC(N)=S` (configuration not stated) showed a TGI of over 100 µM.
In the case of `COc1ccc(Br)c(C(=O)N2CCc3ccccc32)c1N`, the TGI is reported as over 100 µM.
Compound `CC(=O)Oc1cc2cnc3c4cc(OC(C)=O)c(OC(C)=O)cc4ccc3c2cc1OC(C)=O` has a GI50 of 1.19 µM and a TGI of over 100 µM.
For `Cc1ccc2ccc(-c3ccccc3)c3c2c1C(=O)c1ccccc1C3=O`, the TGI was over 100 µM.
Work on `COc1ccc(C2Cc3cc(OC)c(OC)c(OC)c3C2)cc1` (configuration not stated) yielded a TGI of over 100 µM.
`C=C1C[C@@H]2O[C@H]3[C@H]4[C@@H](CC[C@@](C)(OC(=O)CCC)[C@H]42)[C@@H](C)C(=O)O[C@@]3(C)CC[C@H]1OO` showed a GI50 of 17.3 µM and a TGI of 31.1 µM.

These compounds were tested on HCT-15 colon (assay: NCI anticancer screen, dose series, 48 h).
`CC1(C)OC(=O)C(=C2CCC(C(=O)Nc3cccc(C(F)(F)F)c3)N2)C(=O)O1` (configuration not stated) was tested, and the TGI was over 100 µM.
With `CN(C)CCN1CCc2c([nH]c3ccccc23)C1c1cccnc1` (configuration not stated) the TGI was over 100 µM.
Work on `CN(C)c1ccc(C(O)C2=CC(=O)c3ccccc3C2=O)cc1` (configuration not stated) yielded a GI50 of 4.3 µM and a TGI of over 100 µM.
With `C[C@H]1CC[P+](C)(c2ccccc2)C1` (some centres not stated) the TGI was over 100 µM.
`C=C1CC[C@H]2C(C)=CC[C@H]3C(=C)C(=O)O[C@@H]3[C@@H]12` was tested, and the TGI was over 100 µM.
Work on `COc1cc(OC)c2c(=O)c3cccc([N+](=O)[O-])c3n(C)c2c1` yielded a TGI of over 100 µM.
In the case of `COc1cccc(/C=N\NC(=O)C(C)SC(C)C(=O)N/N=C/c2cccc(OC)c2)c1` (configuration not stated), the TGI is reported as over 100 µM.
